Bridge positions count the residues as written; N and C are the ends. Square brackets hold non-standard residues; d marks the D form. Peptide text beside a SMILES is read from it. * marks the point of attachment. ξ: configuration not given here. Ala(morpholin-4-yl) = N[C@@H](CN1CCOCC1)C(=O)O; Phe(4-COOH) = N[C@@H](Cc1ccc(C(=O)O)cc1)C(=O)O; Trp(7-Me) = Cc1cccc2c(C[C@H](N)C(=O)O)c[nH]c12; Bip = N[C@@H](Cc1ccc(-c2ccccc2)cc1)C(=O)O; Phe(3-F) = N[C@@H](Cc1cccc(F)c1)C(=O)O; Phe(3-Me) = Cc1cccc(C[C@H](N)C(=O)O)c1; 1Nal = N[C@@H](Cc1cccc2ccccc12)C(=O)O; Phe(2-F) = N[C@@H](Cc1ccccc1F)C(=O)O; Val(3-OH) = CC(C)(O)[C@H](N)C(=O)O; 2Thi = N[C@@H](Cc1cccs1)C(=O)O; Cha = N[C@@H](CC1CCCCC1)C(=O)O; Ile(3ξ) = CCC(C)[C@H](N)C(=O)O; Thr(3ξ) = CC(O)[C@H](N)C(=O)O; Carboxymethyl = O=C(O)C*; NMeA = CN[C@@H](C)C(=O)O; Nle = CCCC[C@H](N)C(=O)O; Orn = NCCC[C@H](N)C(=O)O; Dab = NCC[C@H](N)C(=O)O
target: T1, PE-labeled human PD-L1-Ig binding to Jurkat cell line over-expressing human PD-1 (Jurkat-PD-1) (Homo sapiens, UniProt Q15116); experiment: Jurkat-PD-1 Cell Binding High-Content Screening Assay (CBA): Method 1; conditions: Jurkat-hPD-1 cells, PE-labeled PD-L1-Ig 20 nM final; read-out: Jurkat HPDL1 PD1 IC50 (uM) (Method 1)
T1 construct: expressed in transfected cells; host or cells: Jurkat
T1 sequence (Q15116 25-288): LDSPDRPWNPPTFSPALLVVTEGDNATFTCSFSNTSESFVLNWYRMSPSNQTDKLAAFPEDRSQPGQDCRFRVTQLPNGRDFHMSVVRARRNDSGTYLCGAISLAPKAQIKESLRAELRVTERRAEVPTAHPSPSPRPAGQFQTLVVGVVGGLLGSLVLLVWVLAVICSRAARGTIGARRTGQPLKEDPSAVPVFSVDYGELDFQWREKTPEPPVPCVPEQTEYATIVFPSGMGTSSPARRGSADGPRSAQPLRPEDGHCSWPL

Compared with `CCCC[C@@H]1NC(=O)[C@H](CCN)NC(=O)[C@@H](CC(C)C)NC(=O)[C@H](C)N(C)C(=O)[C@H](C(C)C)NC(=O)[C@H](Cc2ccc(-c3ccccc3)cc2)NC(=O)[C@H](C(C)C)NC(=O)[C@H](Cc2c[nH]c3ccccc23)NC(=O)[C@H](CC(=O)O)NC(=O)[C@H](Cc2ccc(O)cc2)NC(=O)[C@H](CC(N)=O)NC(=O)CSC[C@@H](C(=O)N[C@@H](C)C(N)=O)NC(=O)[C@H]([C@@H](C)O)NC(=O)[C@H](C(C)C)NC1=O` [Compound 1295] ({CH2CO}-NYDWV[Bip]V[NMeA][dL][Dab][Nle]VTCA-NH2; thioether N-14), `CC(C)C[C@@H]1NC(=O)[C@H](CCN)NC(=O)[C@@H](CC(C)C)NC(=O)[C@H](C)N(C)C(=O)[C@H](C(C)C)NC(=O)[C@H](Cc2ccc(-c3ccccc3)cc2)NC(=O)[C@H](C(C)C)NC(=O)[C@H](Cc2c[nH]c3ccccc23)NC(=O)[C@H](CC(=O)O)NC(=O)[C@H](Cc2ccc(O)cc2)NC(=O)[C@H](CCC(N)=O)NC(=O)CSC[C@@H](C(=O)N[C@@H](C)C(N)=O)NC(=O)[C@H]([C@@H](C)O)NC(=O)[C@H](C(C)C)NC1=O` [Compound 1359] ({CH2CO}-QYDWV[Bip]V[NMeA][dL][Dab]LVTCA-NH2; thioether N-14) is 2.5-fold higher in IC50: 0.02 µM for the first, 0.05 µM for the second.

Going from `CC[C@H](C)[C@@H]1NC(=O)[C@H](Cc2ccc(-c3ccccc3)cc2)NC(=O)[C@H](C(C)(C)O)NC(=O)[C@H](Cc2cccc(C)c2)NC(=O)[C@H](CC(=O)O)NC(=O)[C@H](Cc2ccc(O)cc2)NC(=O)[C@H](CC(N)=O)NC(=O)CSC[C@@H](C(=O)N[C@H](C)C(N)=O)NC(=O)[C@H]([C@@H](C)O)NC(=O)[C@H](C(C)(C)O)NC(=O)[C@H](CC2CCCCC2)NC(=O)[C@H](CCN)NC(=O)[C@@H](CC(C)C)NC(=O)[C@H](C)N(C)C1=O` [Compound 1694] ({CH2CO}-NYD[Phe(3-Me)][Val(3-OH)][Bip]I[NMeA][dL][Dab][Cha][Val(3-OH)]TC[dA]-NH2; thioether N-14) to `CC[C@H](C)[C@@H]1NC(=O)[C@H](Cc2ccc(-c3ccccc3)cc2)NC(=O)[C@H](C(C)(C)O)NC(=O)[C@H](Cc2cccc(C)c2)NC(=O)[C@H](CC(=O)O)NC(=O)[C@H](Cc2ccc(O)cc2)NC(=O)[C@H](CC(N)=O)NC(=O)CSC[C@@H](C(=O)N[C@@H](CCN)C(N)=O)NC(=O)[C@H]([C@@H](C)O)NC(=O)[C@H](C(C)(C)O)NC(=O)[C@H](CC2CCCCC2)NC(=O)[C@H](CCN)NC(=O)[C@@H](CC(C)C)NC(=O)[C@H](C)N(C)C1=O` [Compound 1693] ({CH2CO}-NYD[Phe(3-Me)][Val(3-OH)][Bip]I[NMeA][dL][Dab][Cha][Val(3-OH)]TC[Dab]-NH2; thioether N-14), the IC50 falls from 0.1 µM to 0.02 µM (5-fold). The second is the more potent here.

First: CCNC(=O)[C@H](CCN)NC(=O)[C@@H]1CSCC(=O)N[C@@H]([C@@H](C)O)C(=O)N[C@@H](Cc2ccc(OCC(=O)O)cc2)C(=O)N[C@@H](CC(=O)O)C(=O)N[C@@H](Cc2cccc(C)c2)C(=O)N[C@@H](Cc2cccc(F)c2)C(=O)N[C@@H](Cc2ccc(-c3ccccc3)cc2)C(=O)N[C@@H](Cc2ccc(OCC(=O)O)cc2)C(=O)N(C)[C@@H](C)C(=O)N[C@H](CC(C)C)C(=O)N[C@@H](CCN)C(=O)N[C@@H](CC2CCCCC2)C(=O)N[C@@H](C(C)(C)O)C(=O)N[C@@H](CO)C(=O)N1 [Compound 1844] ({CH2CO}-TY(Carboxymethyl)D[Phe(3-Me)][Phe(3-F)][Bip]Y(Carboxymethyl)[NMeA][dL][Dab][Cha][Val(3-OH)]SC[Dab]-NHEt; thioether N-14)
Second: Cc1cccc(C[C@@H]2NC(=O)[C@H](CC(=O)O)NC(=O)[C@H](Cc3ccc(OCC(=O)O)cc3)NC(=O)[C@H](C(C)O)NC(=O)CSC[C@@H](C(=O)N[C@@H](CCN)C(N)=O)NC(=O)[C@H](CO)NC(=O)[C@H](C(C)(C)O)NC(=O)[C@H](CC3CCCCC3)NC(=O)[C@H](CCN)NC(=O)[C@@H](CC(C)C)NC(=O)[C@H](C)N(C)C(=O)[C@H](Cc3ccc(OCC(=O)O)cc3)NC(=O)[C@H](Cc3ccc(-c4ccccc4)cc3)NC(=O)[C@H](Cc3ccc(C(=O)O)cc3)NC2=O)c1 (stereo partly drawn) [Compound 2150] ({CH2CO}-[Thr(3ξ)]Y(Carboxymethyl)D[Phe(3-Me)][Phe(4-COOH)][Bip]Y(Carboxymethyl)[NMeA][dL][Dab][Cha][Val(3-OH)]SC[Dab]-NH2; thioether N-14)
The IC50 of the first is 2-fold higher: 0.02 µM for the first, 0.01 µM for the second.

Going from `CC(C)C[C@@H]1NC(=O)[C@H](Cc2c[nH]c3ccccc23)NC(=O)[C@H](CC(=O)O)NC(=O)[C@H](Cc2ccc(O)cc2)NC(=O)[C@H](Cc2ccccc2)NC(=O)CSC[C@@H](C(=O)NCC(N)=O)NC(=O)[C@H](CO)NC(=O)[C@H](C(C)C)NC(=O)[C@H](CC(C)C)NC(=O)[C@H](CC(N)=O)NC(=O)[C@H](CCC(N)=O)NC(=O)[C@H](C)N(C)C(=O)[C@H](C(C)C)NC(=O)[C@H](Cc2ccc(-c3ccccc3)cc2)NC1=O` [Compound 1811] ({CH2CO}-FYDWL[Bip]V[NMeA]QNLVSCG-NH2; thioether N-14) to `CC(C)C[C@@H]1NC(=O)[C@H](Cc2c[nH]c3ccccc23)NC(=O)[C@H](CC(=O)O)NC(=O)[C@H](Cc2ccc(O)cc2)NC(=O)[C@H](Cc2ccccc2)NC(=O)CSC[C@@H](C(=O)N[C@@H](C)C(N)=O)NC(=O)[C@H](CO)NC(=O)[C@H](CCCN)NC(=O)[C@H](CC(C)C)NC(=O)[C@H](CC(N)=O)NC(=O)[C@@H](C)NC(=O)[C@H](C)N(C)C(=O)[C@H](C(C)C)NC(=O)[C@H](Cc2ccc(-c3ccccc3)cc2)NC1=O` [Compound 1530] ({CH2CO}-FYDWL[Bip]V[NMeA][dA]NL[Orn]SCA-NH2; thioether N-14), the IC50 falls from 0.28 µM to 0.03 µM (9.3-fold).

`CC[C@H](C)[C@@H]1NC(=O)[C@H](Cc2ccc(-c3ccccc3)cc2)NC(=O)[C@H](C(C)(C)O)NC(=O)[C@H](Cc2cccc(C)c2)NC(=O)[C@H](CC(=O)O)NC(=O)[C@H](Cc2ccc(O)cc2)NC(=O)[C@H](CC(N)=O)NC(=O)CSC[C@@H](C(=O)N[C@@H](CCN)C(N)=O)NC(=O)[C@H]([C@@H](C)O)NC(=O)[C@H](C(C)(C)O)NC(=O)[C@H](CC(C)C)NC(=O)[C@H](CCN)NC(=O)[C@@H](CC(C)C)NC(=O)[C@H](C)N(C)C1=O` [Compound 1687] ({CH2CO}-NYD[Phe(3-Me)][Val(3-OH)][Bip]I[NMeA][dL][Dab]L[Val(3-OH)]TC[Dab]-NH2; thioether N-14) and `CC(C)C[C@@H]1NC(=O)[C@H](Cc2c[nH]c3ccccc23)NC(=O)[C@H](CC(=O)O)NC(=O)[C@H](Cc2ccc(O)cc2)NC(=O)[C@H](Cc2ccccc2)NC(=O)CSC[C@@H](C(=O)N[C@@H](C)C(N)=O)NC(=O)[C@H]([C@@H](C)O)NC(=O)[C@H](CCCNC(=N)N)NC(=O)[C@H](CC(C)C)NC(=O)[C@H](CC(N)=O)NC(=O)[C@@H](C)NC(=O)[C@H](C)N(C)C(=O)[C@H](C(C)C)NC(=O)[C@H](Cc2ccc(-c3ccccc3)cc2)NC1=O` [Compound 1789] ({CH2CO}-FYDWL[Bip]V[NMeA][dA]NLRTCA-NH2; thioether N-14) are within 1.5-fold of each other in IC50: 0.11 µM for the first, 0.12 µM for the second.

Going from `CCC(C)[C@@H]1NC(=O)[C@H](Cc2ccc(-c3ccccc3)cc2)NC(=O)[C@H](CC(C)C)NC(=O)[C@H](Cc2c[nH]c3ccccc23)NC(=O)[C@H](CC(=O)O)NC(=O)[C@H](Cc2ccc(C(=O)O)cc2)NC(=O)[C@H](Cc2ccc(OCC(=O)O)cc2)NC(=O)CSC[C@@H](C(=O)N[C@@H](CO)C(N)=O)NC(=O)[C@H]([C@@H](C)O)NC(=O)[C@H](C(C)C)NC(=O)[C@H](CC2CCCCC2)NC(=O)[C@H](CCN)NC(=O)[C@@H](CC(C)C)NC(=O)[C@H](C)N(C)C1=O` (stereo partly drawn) [Compound 1928] ({CH2CO}-Y(Carboxymethyl)[Phe(4-COOH)]DWL[Bip][Ile(3ξ)][NMeA][dL][Dab][Cha]VTCS-NH2; thioether N-14) to `Cc1cccc2c(C[C@@H]3NC(=O)[C@H](CC(=O)O)NC(=O)[C@H](Cc4ccc(O)cc4)NC(=O)[C@H](Cc4ccccc4)NC(=O)CSC[C@@H](C(=O)N[C@@H](C)C(N)=O)NC(=O)[C@H]([C@@H](C)O)NC(=O)[C@H](C(C)C)NC(=O)[C@H](CC(C)C)NC(=O)[C@H](CCN)NC(=O)[C@@H](CC(C)C)NC(=O)[C@H](C)N(C)C(=O)[C@H](CCCNC(=N)N)NC(=O)[C@H](Cc4ccc(-c5ccccc5)cc4)NC(=O)[C@H](C(C)C)NC3=O)c[nH]c12` [Compound 1201] ({CH2CO}-FYD[Trp(7-Me)]V[Bip]R[NMeA][dL][Dab]LVTCA-NH2; thioether N-14), the IC50 rises from 0.02 µM to 0.56 µM (28-fold).

Compared with `Cc1cccc(C[C@@H]2NC(=O)[C@H](CC(=O)O)NC(=O)[C@H](Cc3ccc(OCC(=O)O)cc3)NC(=O)[C@H](CN3CCOCC3)NC(=O)CSC[C@@H](C(=O)N[C@@H](CCN)C(N)=O)NC(=O)[C@H](CCCN)NC(=O)[C@H](C(C)C)NC(=O)[C@H](Cc3ccccc3F)NC(=O)[C@H](CCN)NC(=O)[C@@H](CC(C)C)NC(=O)[C@H](C)N(C)C(=O)[C@H](CCC(N)=O)NC(=O)[C@H](Cc3ccc(-c4ccccc4)cc3)NC(=O)[C@H](Cc3ccc(C(=O)O)cc3)NC2=O)c1` [Example 2296] ({CH2CO}-[Ala(morpholin-4-yl)]Y(Carboxymethyl)D[Phe(3-Me)][Phe(4-COOH)][Bip]Q[NMeA][dL][Dab][Phe(2-F)]V[Orn]C[Dab]-NH2; thioether N-14), `CC(C)C[C@@H]1NC(=O)[C@H](CCCNC(=N)N)NC(=O)[C@@H](CC(C)C)NC(=O)[C@H](C)N(C)C(=O)[C@H](CCCNC(=N)N)NC(=O)[C@H](Cc2ccc(-c3ccccc3)cc2)NC(=O)[C@H](C(C)C)NC(=O)[C@H](Cc2cccc3ccccc23)NC(=O)[C@H](CC(=O)O)NC(=O)[C@H](Cc2ccc(O)cc2)NC(=O)[C@H](CC(N)=O)NC(=O)CSC[C@@H](C(=O)N[C@@H](C)C(N)=O)NC(=O)[C@H]([C@@H](C)O)NC(=O)[C@H](C(C)C)NC1=O` [Compound 1126] ({CH2CO}-NYD[1Nal]V[Bip]R[NMeA][dL]RLVTCA-NH2; thioether N-14) is 1.9-fold lower in IC50: 0.44 µM for the first, 0.23 µM for the second.

For `CC(C)C[C@@H]1NC(=O)[C@H](Cc2c[nH]c3ccccc23)NC(=O)[C@H](CC(=O)O)NC(=O)[C@H](Cc2cccs2)NC(=O)[C@H](Cc2ccccc2)NC(=O)CSC[C@@H](C(=O)N[C@@H](C)C(N)=O)NC(=O)[C@H](CO)NC(=O)[C@H](C(C)C)NC(=O)[C@H](CC(C)C)NC(=O)[C@H](CC(N)=O)NC(=O)[C@@H](C)NC(=O)[C@H](C)N(C)C(=O)[C@H](C(C)C)NC(=O)[C@H](Cc2ccc(-c3ccccc3)cc2)NC1=O` [Compound 1725] ({CH2CO}-F[2Thi]DWL[Bip]V[NMeA][dA]NLVSCA-NH2; thioether N-14), the IC50 was 0.01 µM.
